Experimental data published in PubChem BioAssay (NCI).
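Five concentrations, 48 hours, 96-well plates. The concentration for full growth arrest is given as TGI.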

Key:
Experiment in all cases: inhibition of tumour cell growth, NCI panel, 48 h
[1] = system: MOLT-4 leukemia
[2] = system: SF-295 CNS
[3] = system: CAKI-1 renal
[4] = system: IGROV1 ovarian
[5] = system: 786-0 renal
[6] = system: CCRF-CEM leukemia
[7] = system: SK-MEL-2 melanoma
[8] = system: HOP-92 NSCLC
[9] = system: NCI-H23 lung
[10] = system: NCI-H460 lung
[11] = system: UO-31 renal
[12] = system: NCI-H522 lung
[13] = system: RPMI-8226 leukemia
[14] = system: SK-OV-3 ovarian
[15] = system: SW-620 colon
[16] = system: HCT-15 colon
[17] = system: U251 CNS
[18] = system: SR leukemia
[19] = system: DLD-1 colon
[20] = system: LOX IMVI melanoma
[21] = system: HL-60(TB) leukemia
[22] = system: SK-MEL-5 melanoma
[23] = system: MALME-3M melanoma
[24] = system: OVCAR-5 ovarian
[25] = system: HT29 colon
[26] = system: K-562 leukemia
[27] = system: KM12 colon
[28] = system: SN12C renal
[29] = system: M19-MEL melanoma
[30] = system: EKVX NSCLC
[31] = system: TK-10 renal
[32] = system: OVCAR-3 ovarian
[33] = system: COLO 205 colon
[34] = system: SF-268 CNS
[35] = system: LXFL 529 NSCLC
[36] = system: M14 melanoma
[37] = system: HOP-62 NSCLC
[38] = system: OVCAR-4 ovarian
[39] = system: SF-539 CNS
[40] = system: DMS 114 small cell lung
[41] = system: ACHN renal
[42] = system: OVCAR-8 ovarian
[43] = system: NCI-H226 lung
[44] = system: HCT-116 colon
[45] = system: RXF 393 renal
[46] = system: A549 NSCLC
[47] = system: SNB-75 CNS
[48] = system: SNB-78 CNS

Compound `Brc1ccccc1C1SCc2nc3ccccc3n21` (stereo not drawn) has a TGI [1] greater than 100 µM, a TGI [2] of 82.9 µM and a TGI [3] of 61.2 µM. It also gave a TGI [4] of 70.6 µM, a TGI [5] of 29.4 µM and a TGI [6] greater than 100 µM. For the same compound, the TGI [7] was 32.5 µM, the TGI [8] was 26.8 µM and the TGI [9] was 33.3 µM. The TGI [10] was 44.5 µM, the TGI [11] was 22.6 µM and the TGI [12] was 33.9 µM. For the same compound, the TGI [13] was greater than 100 µM, the TGI [14] was 56.7 µM and the TGI [15] was greater than 100 µM. For the same compound, the TGI [16] was 25.4 µM, the TGI [17] was 29.7 µM and the TGI [18] was 45.1 µM. It also gave a TGI [19] of 26.7 µM, a TGI [20] of 26 µM and a TGI [21] of 34.1 µM. It also gave a TGI [22] of 18.7 µM, a TGI [23] of 48 µM and a TGI [24] of 68 µM. For the same compound, the TGI [25] was 60.9 µM, the TGI [26] was greater than 100 µM and the TGI [27] was 43.4 µM. For the same compound, the TGI [28] was 25.8 µM, the TGI [29] was 34.8 µM and the TGI [30] was 45.6 µM. The TGI [31] was 49.3 µM, the TGI [32] was 26.7 µM and the TGI [33] was 32.1 µM. The TGI [34] was 66.1 µM, the TGI [35] was 77.9 µM and the TGI [36] was 31.4 µM. The TGI [37] was 39.2 µM, the TGI [38] was 75.9 µM and the TGI [39] was 33 µM. It also gave a TGI [40] of 94.4 µM, a TGI [41] of 81 µM and a TGI [42] of 57.1 µM. The TGI [43] was 31.6 µM, the TGI [44] was 26 µM and the TGI [45] was 23.3 µM. The TGI [46] was greater than 100 µM, the TGI [47] was 47.1 µM and the TGI [48] was 83.7 µM.
